By IC50 is commonly meant the midpoint of a concentration-inhibition curve. A higher IC50 goes with a need for much substance.

Structures are written as SMILES.

Chain of IRAK4 (Q9NWZ3 whole entry): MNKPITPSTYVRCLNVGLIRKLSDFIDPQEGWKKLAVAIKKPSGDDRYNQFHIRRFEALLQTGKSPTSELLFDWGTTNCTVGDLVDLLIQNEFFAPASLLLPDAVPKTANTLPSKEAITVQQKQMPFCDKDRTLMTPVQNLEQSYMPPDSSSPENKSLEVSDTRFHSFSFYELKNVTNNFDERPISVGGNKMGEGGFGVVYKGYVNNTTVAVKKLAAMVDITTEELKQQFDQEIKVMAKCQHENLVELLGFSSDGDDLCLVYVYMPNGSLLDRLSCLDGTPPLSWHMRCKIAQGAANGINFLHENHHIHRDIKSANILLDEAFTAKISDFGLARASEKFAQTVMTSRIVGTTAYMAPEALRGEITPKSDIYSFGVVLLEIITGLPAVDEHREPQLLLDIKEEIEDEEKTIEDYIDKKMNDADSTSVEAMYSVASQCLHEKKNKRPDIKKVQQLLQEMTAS

In the assay the target is IRAK4 (Homo sapiens (Human), UniProt Q9NWZ3). Put plainly: Determination of IRAK4 kinase activity (IMAP fluorescence polarization, phosphorylation of fluorescent peptide substrate). It counts as biochemical. The note with it: 0.5 nM GST tagged IRAK4, 100 nM peptide substrate RP7030, 100 μM ATP, 30 minutes at 25° C. How it is done:
The kinase activity of IRAK4 is determined by its ability to catalyze the phosphorylation of a fluorescent polypeptide substrate. The extent of phosphorylation is measured using IMAP technology (Molecular Devices) where the phosphorylated fluorescent substrate binds to the large M(III)-based nanoparticles which reduces the rotational speed of the substrate and thus increases its fluorescent polarization (FP).
Procedure: A 20 μl reaction mixture contains 10 mM TriHCl, pH 7.2, 0.5 nM GST tagged IRAK4 (SignalChem), 100 nM fluorescent peptide substrate (RP7030, Molecular Devices), 100 μM ATP, 1 mM DTT, 1 mM MgCl2, and 0.01% Tween 20. The reaction is initiated by the addition of ATP. After incubation for 30 minutes at 25° C., 60 μl of Progressive IMAP Reagent (Molecular Devices) is added to stop the reaction. Change in RP7030's FP is determined by a FP reader (Analyst HT, LJL BioSystems). Analytical LCMS Conditions: • Condition A: Phenomenex Luna C18 (4.6×250 mm), 95:5 to 5:95 water:MeCN (0.05% TFA), over 10 min, hold 6 min. • Condition B: Agilent SBC (3.0×50 mm), solvent A: H20-0.1% TFA; • solvent B: ACN-0.1% TFA; GRADIENT TABLE: 0 min:10% B, 0.3 min: 10% B, 1.5 min: 95% B, 2.70 min: 95% B, 2.76 min: 10% B, stop time 3.60 min.
In the case of `Nc1ncc(-c2nc(-c3ccccc3)cs2)c(N[C@@H]2C[C@H](CO)[C@@H](O)[C@H]2O)n1` [Example 11, (1R,2S,3R,5R)-3-((2-amino-5-(4-phenylthiazol-2-yl)pyrimidin-4-yl)amino)-5-(hydroxymethyl)cyclopentane-1,2-diol], the IC50 was determined as 0.409 µM.

Compound `OC[C@H]1C[C@@H](Nc2nc(NC3COC3)ncc2-c2nc3ccccc3s2)[C@H](O)[C@@H]1O` [Example 12, (1R,2S,3R,5R)-3-((5-(benzo[d]thiazol-2-yl)-2-(oxetan-3-ylamino)pyrimidin-4-yl)amino)-5-(hydroxymethyl)cyclopentane-1,2-diol] came in with an IC50 of 0.236 µM. This IC50 is about 1.7-fold lower than that of the compound before. As for `OC[C@H]1C[C@@H](Nc2nc(Nc3cccc(F)c3)ncc2-c2nc3ccccc3s2)[C@H](O)[C@@H]1O` [Example 13, (1R,2S,3R,5R)-3-((5-(benzo[d]thiazol-2-yl)-2-((3-fluorophenyl)amino)pyrimidin-4-yl)amino)-5-(hydroxymethyl)cyclopentane-1,2-diol], the figure is 0.062 µM. With `NC(=O)Cc1cccc(Nc2ncc(-c3nc4ccccc4s3)c(N[C@@H]3C[C@H](CO)[C@@H](O)[C@H]3O)n2)c1` [Example 14, 2-(3-((5-(benzo[d]thiazol-2-yl)-4-(((1R,2S,3R,4R)-2,3-dihydroxy-4-(hydroxymethyl)cyclopentyl)amino)pyrimidin-2-yl)amino)phenyl)acetamide], the IC50 worked out at 0.0054 µM. Compound `OC[C@H]1C[C@@H](Nc2nc(NCC3CC3)ncc2-c2nc3ccccc3s2)[C@H](O)[C@@H]1O` [Example 15, (1R,2S,3R,5R)-3-((5-(benzo[d]thiazol-2-yl)-2-((cyclopropylmethyl)amino)pyrimidin-4-yl)amino)-5-(hydroxymethyl)cyclopentane-1,2-diol] registered an IC50 of 0.333 µM. In turn, `COCCCNc1ncc(-c2nc3ccccc3s2)c(N[C@@H]2C[C@H](CO)[C@@H](O)[C@H]2O)n1` [Example 16, (1R,2S,3R,5R)-3-((5-(benzo[d]thiazol-2-yl)-2-((3-methoxypropyl)amino)pyrimidin-4-yl)amino)-5-(hydroxymethyl)cyclopentane-1,2-diol] yielded an IC50 of 0.228 µM. This IC50 and that of the compound before are within 1.5-fold of each other.

`OC[C@H]1C[C@@H](Nc2nc(NC3CCOCC3)ncc2-c2nc3ccccc3s2)[C@H](O)[C@@H]1O` [Example 17, (1R,2S,3R,5R)-3-((5-(benzo[d]thiazol-2-yl)-2-((tetrahydro-2H-pyran-4-yl)amino)pyrimidin-4-yl)amino)-5-(hydroxymethyl)cyclopentane-1,2-diol] gave an IC50 of 1.08 µM.

Turning to `OC[C@H]1C[C@@H](Nc2nc(NC3CCCCC3)ncc2-c2nc3ccccc3s2)[C@H](O)[C@@H]1O` [Example 18, (1R,2S,3R,5R)-3-((5-(benzo[d]thiazol-2-yl)-2-(cyclohexylamino)pyrimidin-4-yl)amino)-5-(hydroxymethyl)cyclopentane-1,2-diol], inhibition was half-maximal at 3.01 µM (IC50).

In turn, `Nc1ncc(-c2ccc3ccccc3n2)c(N[C@@H]2C[C@H](CO)[C@@H](O)[C@H]2O)n1` [Example 19, (1R,2S,3R,5R)-3-((2-amino-5-(quinolin-2-yl)pyrimidin-4-yl)amino)-5-(hydroxymethyl)cyclopentane-1,2-diol] gave an IC50 of 0.104 µM.

Consider `Nc1ncc(-c2nc3cnccc3s2)c(N[C@@H]2C[C@H](CO)[C@@H](O)[C@H]2O)n1` [Example 20, (1R,2S,3R,5R)-3-((2-amino-5-(thiazolo[4,5-c]pyridin-2-yl)pyrimidin-4-yl)amino)-5-(hydroxymethyl)cyclopentane-1,2-diol], for which the IC50 stood at 0.024 µM. Regarding `Nc1ncc(-c2nc3ccncc3s2)c(N[C@@H]2C[C@H](CO)[C@@H](O)[C@H]2O)n1` [Example 21, (1R,2S,3R,5R)-3-((2-amino-5-(thiazolo[5,4-c]pyridin-2-yl)pyrimidin-4-yl)amino)-5-(hydroxymethyl)cyclopentane-1,2-diol], the IC50 is 0.016 µM.

The compound `OC[C@H]1C[C@@H](Nc2nc(Nc3ccccc3O)ncc2-c2nc3ccccc3s2)[C@H](O)[C@@H]1O` [Example 22, (1R,2S,3R,5R)-3-((5-(benzo[d]thiazol-2-yl)-2-((2-hydroxyphenyl)amino)pyrimidin-4-yl)amino)-5-(hydroxymethyl)cyclopentane-1,2-diol] gave a half-inhibitory concentration (IC50) of 1.24 µM.

`OC[C@H]1C[C@@H](Nc2nc(Nc3ccc4[nH]ccc4c3)ncc2-c2nc3ccccc3s2)[C@H](O)[C@@H]1O` [Example 23, (1R,2S,3R,5R)-3-((2-((1H-indol-5-yl)amino)-5-(benzo[d]thiazol-2-yl)pyrimidin-4-yl)amino)-5-(hydroxymethyl)cyclopentane-1,2-diol] displayed an IC50 of 0.02 µM.

Take `OC[C@H]1C[C@@H](Nc2nc(Nc3ccc4cc[nH]c4c3)ncc2-c2nc3ccccc3s2)[C@H](O)[C@@H]1O` [Example 24, (1R,2S,3R,5R)-3-((2-((1H-indol-6-yl)amino)-5-(benzo[d]thiazol-2-yl)pyrimidin-4-yl)amino)-5-(hydroxymethyl)cyclopentane-1,2-diol]: the IC50 came to 0.022 µM. Turning to `OC[C@H]1C[C@@H](Nc2nc(Nc3ccncn3)ncc2-c2nc3ccccc3s2)[C@H](O)[C@@H]1O` [Example 25, (1R,2S,3R,5R)-3-((5-(benzo[d]thiazol-2-yl)-2-(pyrimidin-4-ylamino)pyrimidin-4-yl)amino)-5-(hydroxymethyl)cyclopentane-1,2-diol], inhibition was half-maximal at 0.034 µM (IC50). `OC[C@H]1C[C@@H](Nc2nc(Nc3cncnc3)ncc2-c2nc3ccccc3s2)[C@H](O)[C@@H]1O` [Example 26, (1R,2S,3R,5R)-3-((5-(benzo[d]thiazol-2-yl)-2-(pyrimidin-5-ylamino)pyrimidin-4-yl)amino)-5-(hydroxymethyl)cyclopentane-1,2-diol]: the IC50 is 0.0048 µM. Compared with the last compound, the IC50 is about 7.1-fold lower. `NC(=O)c1cccc(Nc2ncc(-c3nc4ccccc4s3)c(N[C@@H]3C[C@H](CO)[C@@H](O)[C@H]3O)n2)c1` [Example 27, 3-((5-(benzo[d]thiazol-2-yl)-4-(((1R,2S,3R,4R)-2,3-dihydroxy-4-(hydroxymethyl)cyclopentyl)amino)pyrimidin-2-yl)amino)benzamide] displayed an IC50 of 0.0053 µM. On to `NC(=O)Cc1ccc(Nc2ncc(-c3nc4ccccc4s3)c(N[C@@H]3C[C@H](CO)[C@@H](O)[C@H]3O)n2)cc1` [Example 29, 2-(4-((5-(benzo[d]thiazol-2-yl)-4-(((1R,2S,3R,4R)-2,3-dihydroxy-4-(hydroxymethyl)cyclopentyl)amino)pyrimidin-2-yl)amino)phenyl)acetamide], for which the IC50 was determined as 0.01 µM. For `OC[C@H]1C[C@@H](Nc2nc(Nc3ccncc3F)ncc2-c2nc3ccccc3s2)[C@H](O)[C@@H]1O` [Example 30, (1R,2S,3R,5R)-3-((5-(benzo[d]thiazol-2-yl)-2-((3-fluoropyridin-4-yl)amino)pyrimidin-4-yl)amino)-5-(hydroxymethyl)cyclopentane-1,2-diol], the IC50 was found to be 0.044 µM. With `Cc1cc(Nc2ncc(-c3nc4ccccc4s3)c(N[C@@H]3C[C@H](CO)[C@@H](O)[C@H]3O)n2)ccn1` [Example 31, (1R,2S,3R,5R)-3-((5-(benzo[d]thiazol-2-yl)-2-((2-methylpyridin-4-yl)amino)pyrimidin-4-yl)amino)-5-(hydroxymethyl)cyclopentane-1,2-diol], the half-maximal inhibitory concentration (IC50) is 0.0012 µM.

The compound `OC[C@H]1C[C@@H](Nc2nc(NC3CCCC3)ncc2-c2nc3ccccc3s2)[C@H](O)[C@@H]1O` [Example 33, (1R,2S,3R,5R)-3-((5-(benzo[d]thiazol-2-yl)-2-(cyclopentylamino)pyrimidin-4-yl)amino)-5-(hydroxymethyl)cyclopentane-1,2-diol] gave an IC50 of 0.496 µM.

For `CN(C)c1ccc(Nc2ncc(-c3nc4ccccc4s3)c(N[C@@H]3C[C@H](CO)[C@@H](O)[C@H]3O)n2)cc1` [Example 34, (1R,2S,3R,5R)-3-((5-(benzo[d]thiazol-2-yl)-2-((4-(dimethylamino)phenyl)amino)pyrimidin-4-yl)amino)-5-(hydroxymethyl)cyclopentane-1,2-diol], the IC50 is 0.012 µM.

As for `Cc1cc(C)cc(Nc2ncc(-c3nc4ccccc4s3)c(N[C@@H]3C[C@H](CO)[C@@H](O)[C@H]3O)n2)c1` [Example 35, (1R,2S,3R,5R)-3-((5-(benzo[d]thiazol-2-yl)-2-((3,5-dimethylphenyl)amino)pyrimidin-4-yl)amino)-5-(hydroxymethyl)cyclopentane-1,2-diol], the IC50 was found to be 0.01 µM. On to `COc1cccc([C@@H](C)Nc2ncc(-c3nc4ccccc4s3)c(N[C@@H]3C[C@H](CO)[C@@H](O)[C@H]3O)n2)c1` [Example 36, (1R,2S,3R,5R)-3-((5-(benzo[d]thiazol-2-yl)-2-(((R)-1-(3-methoxyphenyl)ethyl)amino)pyrimidin-4-yl)amino)-5-(hydroxymethyl)cyclopentane-1,2-diol], for which the IC50 was 0.47 µM. On to `OC[C@H]1C[C@@H](Nc2nc(Nc3cccnc3)ncc2-c2nc3ccccc3s2)[C@H](O)[C@@H]1O` [Example 37, (1R,2S,3R,5R)-3-((5-(benzo[d]thiazol-2-yl)-2-(pyridin-3-ylamino)pyrimidin-4-yl)amino)-5-(hydroxymethyl)cyclopentane-1,2-diol], for which 0.01 µM corresponded to half-maximal inhibition (IC50).

These data come from patent US9598440B2, “Inhibitors of IRAK4 activity” (MERCK SHARP & DOHME CORP., priority 2012, dated 2017).
